Key:
AXL = biological target: T1, AXL (Homo sapiens, UniProt P30530); assay: TR-FRET kinase activity assay, AXL; assay type: biochemical; conditions: ATP at Km, 60 minutes
T1 sequence (P30530 26-894): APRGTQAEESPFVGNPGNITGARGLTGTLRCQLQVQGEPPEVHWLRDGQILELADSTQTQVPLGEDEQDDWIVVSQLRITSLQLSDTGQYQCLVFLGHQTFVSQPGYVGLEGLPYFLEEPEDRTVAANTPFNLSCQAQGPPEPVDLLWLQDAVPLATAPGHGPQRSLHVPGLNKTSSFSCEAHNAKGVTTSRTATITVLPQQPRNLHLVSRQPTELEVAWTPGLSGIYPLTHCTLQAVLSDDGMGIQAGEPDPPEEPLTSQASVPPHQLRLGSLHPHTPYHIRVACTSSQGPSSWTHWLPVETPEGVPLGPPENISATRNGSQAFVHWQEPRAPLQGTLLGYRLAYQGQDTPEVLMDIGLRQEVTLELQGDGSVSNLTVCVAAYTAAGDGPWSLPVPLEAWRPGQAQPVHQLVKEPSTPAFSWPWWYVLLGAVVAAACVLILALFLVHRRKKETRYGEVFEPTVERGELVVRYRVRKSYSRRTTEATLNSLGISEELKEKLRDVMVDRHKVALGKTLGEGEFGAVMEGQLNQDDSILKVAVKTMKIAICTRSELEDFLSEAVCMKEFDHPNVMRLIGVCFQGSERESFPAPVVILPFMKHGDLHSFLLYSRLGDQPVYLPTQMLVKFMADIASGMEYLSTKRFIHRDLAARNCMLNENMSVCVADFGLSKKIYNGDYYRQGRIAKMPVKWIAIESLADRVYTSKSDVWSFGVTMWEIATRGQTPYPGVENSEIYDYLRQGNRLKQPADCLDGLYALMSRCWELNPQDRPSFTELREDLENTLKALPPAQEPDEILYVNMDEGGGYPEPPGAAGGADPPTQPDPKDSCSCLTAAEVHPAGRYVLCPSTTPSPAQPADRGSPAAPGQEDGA
Method in brief: (§1)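 TR-FRET signal from Eu-labeled phospho-site antibody bound to tyrosine-phosphorylated fluorescent peptide; inhibition lowers signal, giving IC50. Reactions: 50 mM HEPES pH 7.5, 10 mM MgCl2, 1 mM EGTA, 0.01% Brij 35, 1 mM DTT, ATP at Km per enzyme, 60 min, RT.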

FLT3 = biological target: T2, FLT3 (Homo sapiens, UniProt P36888); assay: TR-FRET kinase activity assay, FLT3; assay type: biochemical; conditions: ATP at Km, 60 minutes
T2 sequence (P36888 27-993): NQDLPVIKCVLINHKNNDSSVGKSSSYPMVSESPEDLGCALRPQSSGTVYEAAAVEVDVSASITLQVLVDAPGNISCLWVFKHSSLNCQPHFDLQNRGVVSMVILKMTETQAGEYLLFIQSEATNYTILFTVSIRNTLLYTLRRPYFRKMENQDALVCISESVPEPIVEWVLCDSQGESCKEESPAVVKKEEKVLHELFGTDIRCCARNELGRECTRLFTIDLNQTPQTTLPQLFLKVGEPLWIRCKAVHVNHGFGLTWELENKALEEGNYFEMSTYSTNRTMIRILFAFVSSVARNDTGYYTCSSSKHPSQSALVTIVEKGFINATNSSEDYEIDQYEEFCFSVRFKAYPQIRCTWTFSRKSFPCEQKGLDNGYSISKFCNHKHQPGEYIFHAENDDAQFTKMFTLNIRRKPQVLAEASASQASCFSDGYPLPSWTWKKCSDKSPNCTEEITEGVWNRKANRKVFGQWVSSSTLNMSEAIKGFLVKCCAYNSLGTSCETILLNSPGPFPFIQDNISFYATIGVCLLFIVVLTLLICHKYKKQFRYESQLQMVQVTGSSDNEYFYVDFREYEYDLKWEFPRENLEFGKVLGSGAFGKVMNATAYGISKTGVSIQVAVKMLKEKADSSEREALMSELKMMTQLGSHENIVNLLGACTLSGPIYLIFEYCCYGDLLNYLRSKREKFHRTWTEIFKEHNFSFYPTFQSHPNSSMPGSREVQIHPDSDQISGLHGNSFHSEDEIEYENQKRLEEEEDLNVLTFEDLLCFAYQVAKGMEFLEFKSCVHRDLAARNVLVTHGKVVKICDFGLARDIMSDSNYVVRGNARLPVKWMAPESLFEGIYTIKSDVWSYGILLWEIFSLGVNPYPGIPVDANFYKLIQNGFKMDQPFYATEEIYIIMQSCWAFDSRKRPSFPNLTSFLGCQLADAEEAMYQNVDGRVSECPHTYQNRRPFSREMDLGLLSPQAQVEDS
Method in brief: as §1

Row | SMILES | IC50 (AXL) [nM] | IC50 (FLT3) [nM]
1 | COC[C@H](C)Nc1ncc2c(OC3CCOCC3)ncc(-c3cccc(S(=O)(=O)N(C)C)c3)c2n1 [Compound 307, (S)-3-(2-((1-methoxypropan-2-yl)amino)-5-((tetrahydro-2H-pyran-4-yl)oxy)pyrido[4,3-d]pyrimidin-8-yl)-N,N-dimethylbenzenesulfonamide] | 1000 to 10000 | 1000 to 10000
2 | COC[C@H](C)Nc1ncc2c(OC3CCOCC3)ncc([C@H]3CC[C@](C)(O)CC3)c2n1 [Compound 293] | 100 to 1000 | 1000 to 10000
3 | CC(C)Nc1ncc2c(OC3CCOCC3)ncc(-c3cccc(S(=O)(=O)C(C)C)c3)c2n1 [Compound 318] | 100 to 1000 | 1000 to 10000
4 | CC[C@H](C)Nc1ncc2c(O[C@H]3CC[C@@H](N(C)C)C3)ncc([C@H]3CC[C@H](O)CC3)c2n1 [Compound 298] | 100 to 1000 | 1000 to 10000
5 | CCc1cc(Nc2ncc3c(OC4CCNCC4)ncc([C@H]4CC[C@H](O)CC4)c3n2)ccc1Cl [Compound 300] | ≤ 100 | 100 to 1000
6 | COC[C@H](C)Nc1ncc2c(OC3CCOCC3)ncc([C@H]3CCCNC3)c2n1 [Compound 326] | 100 to 1000 | ≤ 100
7 | C[C@@H](CC(F)(F)F)Nc1ncc2c(OC3CCOCC3)ncc([C@H]3CC[C@H](O)CC3)c2n1 [Compound 305] | 100 to 1000 | 100 to 1000
8 | CS(=O)(=O)N1CC[C@H](Nc2ncc3c(OC4CCOCC4)ncc([C@H]4CC[C@H](O)CC4)c3n2)C1 [Compound 278] | 1000 to 10000 | 1000 to 10000
9 | CN1CC(Nc2ncc3c(OC4CCOCC4)ncc([C@H]4CC[C@H](O)CC4)c3n2)CC1=O (stereo partly drawn) [Compound 282] | 1000 to 10000 | 1000 to 10000
10 | COC[C@H](C)Nc1ncc2c(O[C@H]3CCNCC3(F)F)ncc([C@H]3CC[C@H](O)CC3)c2n1 [Compound 302] | 1000 to 10000 | 1000 to 10000
11 | COC[C@H](C)Nc1ncc2c(OC3CCOCC3)ncc(-c3cnn([C@@H]4CCN(C)C4)c3)c2n1 [Compound 314] | 1000 to 10000 | 1000 to 10000
12 | COC[C@H](C)Nc1ncc2c(OC3CCOCC3)ncc([C@@H]3CCCNC3)c2n1 [Compound 327] | 1000 to 10000 | 1000 to 10000
13 | COC[C@H](C)Nc1ncc2c(C3CC3)ncc([C@H]3CC[C@H](O)CC3)c2n1 [Compound 349] | 100 to 1000 | 1000 to 10000
14 | CC[C@H](C)Nc1ncc2c(O[C@H]3CC[C@H](N)CC3)ncc([C@H]3CC[C@H](O)CC3)c2n1 [Compound 321] | ≤ 100 | 100 to 1000
15 | CNC(=O)N1CCC(c2cnc(OC3CCOCC3)c3cnc(N[C@@H](C)COC)nc23)CC1 [Compound 345] | 1000 to 10000 | 1000 to 10000
16 | O=C(O)[C@H]1CC[C@@H](Nc2ncc3c(OC4CCOCC4)ncc([C@H]4CC[C@H](O)CC4)c3n2)CC1 [Compound 353] | 1000 to 10000 | 1000 to 10000
17 | COC[C@H](C)Nc1ncc2c(OC3CCOCC3)ncc(-c3cccc(C(N)=O)c3)c2n1 [Compound 325] | 1000 to 10000 | 1000 to 10000
18 | O=C(O)c1ccc(Nc2ncc3c(OC4CCNCC4)ncc([C@H]4CC[C@H](O)CC4)c3n2)cc1 [Compound 283] | ≤ 100 | 100 to 1000
19 | CCCCNc1cc2c(cn1)c(=O)n(C1CCN(C)CC1)cc2[C@H]1CC[C@H](O)CC1 [Compound 116] | 100 to 1000 | 100 to 1000
20 | CCCC(C)Nc1ncc2c(=O)n(C3CCN(C)CC3)cc([C@H]3CC[C@H](O)CC3)c2n1 (stereo partly drawn) [Compound 117] | 100 to 1000 | 1000 to 10000
21 | O[C@H]1CC[C@H](c2cnc(OC3CCNCC3)c3cnc(Nc4ccc(Cl)c(Cl)c4)nc32)CC1 [Compound 299] | ≤ 100 | ≤ 100

Row | SMILES | IC50 (AXL) [nM] | IC50 (FLT3) [nM]
22 | COC[C@H](C)Nc1ncc2c(OC3C[C@H]4CC[C@@H](C3)N4C)ncc([C@H]3CC[C@H](O)CC3)c2n1 (stereo partly drawn) [Compound 343] | 100 to 1000 | 1000 to 10000
23 | COC[C@H](C)Nc1ncc2c(O[C@@H]3CCNCC3(F)F)ncc([C@H]3CC[C@H](O)CC3)c2n1 [Compound 308] | 1000 to 10000 | 1000 to 10000
24 | COC[C@H](C)Nc1ncc2c(O[C@H]3C[C@@H](O)C3)ncc([C@H]3CC[C@H](O)CC3)c2n1 [Compound 296] | 100 to 1000 | 1000 to 10000
25 | COC[C@H](C)Nc1ncc2c(OC3CCOCC3)ncc([C@H]3CC[C@H](NC(C)=O)CC3)c2n1 [Compound 315] | 1000 to 10000 | 1000 to 10000
26 | CCC1(Nc2ncc3c(OC4CCOCC4)ncc([C@H]4CC[C@H](O)CC4)c3n2)CC1 [Compound 339] | 100 to 1000 | 1000 to 10000
27 | COC[C@H](C)Nc1ncc2c(OC3CCOCC3)ncc(-c3ccc(O)cc3)c2n1 [Compound 301] | 1000 to 10000 | 1000 to 10000
28 | CN1C[C@@H](Nc2ncc3c(OC4CCOCC4)ncc([C@H]4CC[C@H](O)CC4)c3n2)CC1=O [Compound 324] | 1000 to 10000 | 1000 to 10000
29 | COC[C@H](C)Nc1ncc2c(O[C@H]3C[C@H](O)C3)ncc([C@H]3CC[C@H](O)CC3)c2n1 [Compound 295] | 100 to 1000 | 1000 to 10000
30 | C[C@@H](CF)Nc1ncc2c(OC3CCOCC3)ncc([C@H]3CC[C@H](O)CC3)c2n1 [Compound 304] | 100 to 1000 | 1000 to 10000
31 | COC[C@H](C)Nc1ncc2c(OC3CCOCC3)ncc(-c3ccc(N4CCN(C)CC4)cc3)c2n1 [Compound 279] | 1000 to 10000 | 1000 to 10000
32 | COC[C@H](C)Nc1ncc2c(OC3CCOCC3)ncc([C@H]3CC[C@@](C)(O)CC3)c2n1 [Compound 294] | 1000 to 10000 | 1000 to 10000
33 | COC[C@H](C)Nc1ncc2c(OC3CCOCC3)ncc(-c3ccnnc3)c2n1 [Compound 342] | 1000 to 10000 | 1000 to 10000
34 | CN1C[C@H](Nc2ncc3c(OC4CCOCC4)ncc([C@H]4CC[C@H](O)CC4)c3n2)CC1=O [Compound 323] | 1000 to 10000 | 1000 to 10000
35 | C[C@@H](CC#N)Nc1ncc2c(OC3CCOCC3)ncc([C@H]3CC[C@H](O)CC3)c2n1 [Compound 292] | 100 to 1000 | 1000 to 10000
36 | CNS(=O)(=O)N[C@H]1CC[C@H](c2cnc(OC3CCOCC3)c3cnc(N[C@@H](C)COC)nc32)CC1 [Compound 317] | 1000 to 10000 | > 10000
37 | N#Cc1ccc(Nc2ncc3c(OC4CCNCC4)ncc([C@H]4CC[C@H](O)CC4)c3n2)cc1 [Compound 331] | ≤ 100 | ≤ 100
38 | COC[C@H](C)Nc1ncc2c(O[C@@H]3CCOC3)ncc([C@H]3CC[C@H](O)CC3)c2n1 [Compound 354] | 1000 to 10000 | 1000 to 10000
39 | COC[C@H](C)Nc1ncc2c(OC3CCOCC3)ncc(-c3ccc(CC#N)cc3)c2n1 [Compound 319] | 100 to 1000 | 1000 to 10000
40 | C[C@@H](CCF)Nc1ncc2c(OC3CCOCC3)ncc([C@H]3CC[C@H](O)CC3)c2n1 [Compound 311] | 100 to 1000 | 1000 to 10000
41 | CC(C)Nc1ncc2c(OC3CCOCC3)ncc(-c3cccc(S(=O)(=O)N(C)C)c3)c2n1 [Compound 288] | 100 to 1000 | 100 to 1000
42 | CC[C@H](C)Nc1ncc2c(OC3CCN(c4ncccn4)CC3)ncc([C@H]3CC[C@H](O)CC3)c2n1 [Compound 306] | 100 to 1000 | 1000 to 10000

From patent US20200291018A1, “TAM KINASE INHIBITORS” (SYROS PHARMACEUTICALS, INC., priority 2017, published 2020)
